Measurements taken from patent US10004701B2, “Methods and compositions for treating infection” (UNIVERSITY OF ROCHESTER, priority 2012, dated 2018).
Structures can show the parent of a compound that is named as a salt. Where two headings read alike, the source gives them in different places.

Key:
Test in all cases: AK assay 384-well format, Prestwick library screening
[1] = tested on: E. coli; format: cell-based, Escherichia coli; conditions: 50 μM final drug concentration; for fold induction at 50 µM: Escherichia coli, 3 h
[2] = tested on: A. baumannii strain 98-37-09; format: cell-based, Acinetobacter baumannii; conditions: 50 μM final drug concentration; for fold induction at 50 µM: Acinetobacter baumannii, 983709, 3 h
[3] = tested on: P. aeruginosa; format: cell-based, Pseudomonas aeruginosa; conditions: 50 μM final drug concentration; for fold induction at 50 µM: Pseudomonas aeruginosa, 3 h
[4] = tested on: E. cloacae; format: cell-based, Enterobacter cloacae; conditions: 50 μM final drug concentration; for fold induction at 50 µM: Enterobacter cloacae, 3 h
[5] = tested on: E. faecium; format: cell-based, Enterococcus faecium; conditions: 50 μM final drug concentration; for fold induction at 50 µM: Enterococcus faecium, 3 h
[6] = tested on: K. pneumoniae; format: cell-based, Klebsiella pneumoniae; conditions: 50 μM final drug concentration; for fold induction at 50 µM: Klebsiella pneumoniae, 3 h
[7] = tested on: S. aureus strain USA300-0114; format: cell-based, Staphylococcus aureus; conditions: 50 μM final drug concentration; for fold induction at 50 µM: Staphylococcus aureus, USA300, 3 h
[8] = cutoff for positive-scoring molecules 3-fold increase
[9] = 384-well format, cutoff for positive-scoring molecules 3-fold increase, read-out: AK-based Prestwick Library Screening Results, E. coli (increase in extracellular AK activity)
[10] = 384-well format, cutoff for positive-scoring molecules 3-fold increase, read-out: AK-based Prestwick Library Screening Results, A. baumannii (increase in extracellular AK activity)
[11] = 384-well format, cutoff for positive-scoring molecules 3-fold increase, read-out: AK-based Prestwick Library Screening Results, P. aeruginosa (increase in extracellular AK activity)
[12] = 384-well format, cutoff for positive-scoring molecules 3-fold increase, read-out: AK-based Prestwick Library Screening Results, E. cloacae (increase in extracellular AK activity)
[13] = 384-well format, cutoff for positive-scoring molecules 3-fold increase, read-out: AK-based Prestwick Library Screening Results, E. faecium (increase in extracellular AK activity)
[14] = 384-well format, cutoff for positive-scoring molecules 3-fold increase, read-out: AK-based Prestwick Library Screening Results, K. pneumoniae (increase in extracellular AK activity)
[15] = 384-well format, cutoff for positive-scoring molecules 3-fold increase, read-out: AK-based Prestwick Library Screening Results, S. aureus (increase in extracellular AK activity)

CC[N+](C)(CC)CCC[n+]1c(-c2ccccc2)c2cc(N)ccc2c2ccc(N)cc21.[I-].[I-] [Propidium iodide] was tested, and the “AK-based Prestwick Library Screening Results, E. coli (fold increase in extracellular AK activity)” value [1, 8] was 1.3, the “AK-based Prestwick Library Screening Results, A. baumannii (fold increase in extracellular AK activity)” value [2, 8] was 1.1 and the “AK-based Prestwick Library Screening Results, P. aeruginosa (fold increase in extracellular AK activity)” value [3, 8] was 1.0. The “AK-based Prestwick Library Screening Results, E. cloacae (fold increase in extracellular AK activity)” value [4, 8] was 1.6, the “AK-based Prestwick Library Screening Results, E. faecium (fold increase in extracellular AK activity)” value [5, 8] was 0.8 and the “AK-based Prestwick Library Screening Results, K. pneumoniae (fold increase in extracellular AK activity)” value [6, 8] was 0.8. For the same compound, the “AK-based Prestwick Library Screening Results, S. aureus (fold increase in extracellular AK activity)” value [7, 8] was 1.4.
For Clc1ccc2c(c1)C(N1CCNCC1)=Nc1ccccc1O2 [Amoxapine], the fold induction at 50 µM [1, 9] was 1, the fold induction at 50 µM [2, 10] was 0.8 and the fold induction at 50 µM [3, 11] was 0.9. The fold induction at 50 µM [4, 12] was 0.9, the fold induction at 50 µM [5, 13] was 0.9 and the fold induction at 50 µM [6, 14] was 0.8. The fold induction at 50 µM [7, 15] was 0.7.
Nc1nc2c(ncn2COCCO)c(=O)[nH]1 [Acyclovir] showed a fold induction at 50 µM [1, 9] of 0.5, a fold induction at 50 µM [2, 10] of 0.4 and a fold induction at 50 µM [3, 11] of 0.4. It also gave a fold induction at 50 µM [4, 12] of 0.3, a fold induction at 50 µM [5, 13] of 0.9 and a fold induction at 50 µM [6, 14] of 0.5. For the same compound, the fold induction at 50 µM [7, 15] was 0.5.
In the case of C[C@]12C=CC(=O)C=C1CC[C@@H]1[C@@H]2[C@@H](O)C[C@@]2(C)[C@H]1CC[C@]2(O)C(=O)CO [Prednisolone], the fold induction at 50 µM [1, 9] is reported as 1, the fold induction at 50 µM [2, 10] is reported as 1 and the fold induction at 50 µM [3, 11] is reported as 1. For the same compound, the fold induction at 50 µM [4, 12] was 1.3, the fold induction at 50 µM [5, 13] was 1 and the fold induction at 50 µM [6, 14] was 0.7. The fold induction at 50 µM [7, 15] was 0.8.
Work on Cc1nc2ccccn2c(=O)c1CCN1CCC(C(=O)c2ccc(F)cc2)CC1 [Pirenperone] yielded a fold induction at 50 µM ([1]; planktonic, cutoff for positive 3-fold increase, read-out: AK-based Prestwick Library Screening Results, E. coli (fold increase in extracellular AK activity)) of 1.1, a fold induction at 50 µM ([2]; planktonic, cutoff for positive 3-fold increase, read-out: AK-based Prestwick Library Screening Results, A. baumannii (fold increase in extracellular AK activity)) of 1.2 and a fold induction at 50 µM ([3]; planktonic, cutoff for positive 3-fold increase, read-out: AK-based Prestwick Library Screening Results, P. aeruginosa (fold increase in extracellular AK activity)) of 1.2. It also gave a fold induction at 50 µM ([4]; planktonic, cutoff for positive 3-fold increase, read-out: AK-based Prestwick Library Screening Results, E. cloacae (fold increase in extracellular AK activity)) of 1.5, a fold induction at 50 µM ([5]; planktonic, cutoff for positive 3-fold increase, read-out: AK-based Prestwick Library Screening Results, E. faecium (fold increase in extracellular AK activity)) of 1.1 and a fold induction at 50 µM ([6]; planktonic, cutoff for positive 3-fold increase, read-out: AK-based Prestwick Library Screening Results, K. pneumoniae (fold increase in extracellular AK activity)) of 1. For the same compound, the fold induction at 50 µM ([7]; planktonic, cutoff for positive 3-fold increase, read-out: AK-based Prestwick Library Screening Results, S. aureus (fold increase in extracellular AK activity)) was 1.1.
With CC(=O)[C@H]1CC[C@H]2[C@@H]3CC=C4C[C@@H](O)CC[C@]4(C)[C@H]3CC[C@]12C [Pregnenolone] the “AK-based Prestwick Library Screening Results, E. coli (fold increase in extracellular AK activity)” value ([1]; planktonic, […]) was 1.4, the “AK-based Prestwick Library Screening Results, A. baumannii (fold increase in extracellular AK activity)” value ([2]; planktonic, […]) was 1.3 and the “AK-based Prestwick Library Screening Results, P. aeruginosa (fold increase in extracellular AK activity)” value ([3]; planktonic, […]) was 1.1. The “AK-based Prestwick Library Screening Results, E. cloacae (fold increase in extracellular AK activity)” value ([4]; planktonic, […]) was 1.5, the “AK-based Prestwick Library Screening Results, E. faecium (fold increase in extracellular AK activity)” value ([5]; planktonic, […]) was 1.1 and the “AK-based Prestwick Library Screening Results, K. pneumoniae (fold increase in extracellular AK activity)” value ([6]; planktonic, […]) was 1.1. The “AK-based Prestwick Library Screening Results, S. aureus (fold increase in extracellular AK activity)” value ([7]; planktonic, […]) was 1.1.
NNC(=O)c1ccncc1 [Isoniazid] gave a fold induction at 50 µM [1, 9] of 0.6, a fold induction at 50 µM [2, 10] of 0.6 and a fold induction at 50 µM [3, 11] of 0.6. For the same compound, the fold induction at 50 µM [4, 12] was 0.6, the fold induction at 50 µM [5, 13] was 1 and the fold induction at 50 µM [6, 14] was 0.6. For the same compound, the fold induction at 50 µM [7, 15] was 0.7.
CN(C)C/C=C(/c1ccc(Br)cc1)c1cccnc1 [Zimelidine dihydrochloride monohydrate] was tested, and the fold induction at 50 µM [1, 9] was 0.7, the fold induction at 50 µM [2, 10] was 0.7 and the fold induction at 50 µM [3, 11] was 0.6. The fold induction at 50 µM [4, 12] was 0.8, the fold induction at 50 µM [5, 13] was 0.9 and the fold induction at 50 µM [6, 14] was 0.5. For the same compound, the fold induction at 50 µM [7, 15] was 0.8.
Compound CC(C)(C)NC(=O)[C@@H]1C[C@@H]2CCCC[C@@H]2CN1C[C@@H](O)[C@H](Cc1ccccc1)NC(=O)[C@H](CC(N)=O)NC(=O)c1ccc2ccccc2n1 [Saquinavir mesylate] has a fold induction at 50 µM ([1]; planktonic E. coli, […], read-out: AK-based Prestwick library screening result, E. coli (fold increase in extracellular AK activity)) of 1.3, a fold induction at 50 µM ([2]; planktonic A. baumannii, […], read-out: AK-based Prestwick library screening result, A. baumannii (fold increase in extracellular AK activity)) of 1.5 and a fold induction at 50 µM ([3]; planktonic P. aeruginosa, […], read-out: AK-based Prestwick library screening result, P. aeruginosa (fold increase in extracellular AK activity)) of 1. For the same compound, the fold induction at 50 µM ([4]; planktonic E. cloacae, […], read-out: AK-based Prestwick library screening result, E. cloacae (fold increase in extracellular AK activity)) was 1.8, the fold induction at 50 µM ([5]; planktonic E. faecium, […], read-out: AK-based Prestwick library screening result, E. faecium (fold increase in extracellular AK activity)) was 1.2 and the fold induction at 50 µM ([6]; planktonic K. pneumoniae, […], read-out: AK-based Prestwick library screening result, K. pneumoniae (fold increase in extracellular AK activity)) was 1.1. For the same compound, the fold induction at 50 µM ([7]; planktonic S. aureus, […], read-out: AK-based Prestwick library screening result, S. aureus (fold increase in extracellular AK activity)) was 0.9.
Work on CCCC(=O)Nc1ccc(OCC(O)CNC(C)C)c(C(C)=O)c1 (centres unmarked) [Acebutolol hydrochloride] yielded a fold induction at 50 µM ([1]; planktonic E. coli, 384-well, cutoff for positive-scoring molecules 3-fold increase, read-out: AK-based Prestwick Library Screening Results: E. coli (increase in extracellular AK activity)) of 1.3, a fold induction at 50 µM ([2]; planktonic A. baumannii, 384-well, cutoff for positive-scoring molecules 3-fold increase, read-out: AK-based Prestwick Library Screening Results: A. baumannii (increase in extracellular AK activity)) of 1.3 and a fold induction at 50 µM ([3]; planktonic P. aeruginosa, 384-well, cutoff for positive-scoring molecules 3-fold increase, read-out: AK-based Prestwick Library Screening Results: P. aeruginosa (increase in extracellular AK activity)) of 1.1. The fold induction at 50 µM ([4]; planktonic E. cloacae, 384-well, cutoff for positive-scoring molecules 3-fold increase, read-out: AK-based Prestwick Library Screening Results: E. cloacae (increase in extracellular AK activity)) was 1.2, the fold induction at 50 µM ([5]; planktonic E. faecium, 384-well, cutoff for positive-scoring molecules 3-fold increase, read-out: AK-based Prestwick Library Screening Results: E. faecium (increase in extracellular AK activity)) was 1.1 and the fold induction at 50 µM ([6]; planktonic K. pneumoniae, 384-well, cutoff for positive-scoring molecules 3-fold increase, read-out: AK-based Prestwick Library Screening Results: K. pneumoniae (increase in extracellular AK activity)) was 0.9. For the same compound, the fold induction at 50 µM ([7]; planktonic S. aureus, 384-well, cutoff for positive-scoring molecules 3-fold increase, read-out: AK-based Prestwick Library Screening Results: S. aureus (increase in extracellular AK activity)) was 1.1.
CCOc1ccc2ccccc2c1C(=O)N[C@@H]1C(=O)N2[C@@H]1SC(C)(C)[C@@H]2C(=O)O [Nafcillin sodium salt monohydrate] showed a fold induction at 50 µM ([1]; cutoff for positive-scoring molecules 3-fold increase, read-out: AK-based Prestwick Library Screening Results, E. coli (fold increase in extracellular AK activity)) of 1.2, a fold induction at 50 µM ([2]; cutoff for positive-scoring molecules 3-fold increase, read-out: AK-based Prestwick Library Screening Results, A. baumannii (fold increase in extracellular AK activity)) of 1.5 and a fold induction at 50 µM ([3]; cutoff for positive-scoring molecules 3-fold increase, read-out: AK-based Prestwick Library Screening Results, P. aeruginosa (fold increase in extracellular AK activity)) of 1.3. It also gave a fold induction at 50 µM ([4]; cutoff for positive-scoring molecules 3-fold increase, read-out: AK-based Prestwick Library Screening Results, E. cloacae (fold increase in extracellular AK activity)) of 1.4, a fold induction at 50 µM ([5]; cutoff for positive-scoring molecules 3-fold increase, read-out: AK-based Prestwick Library Screening Results, E. faecium (fold increase in extracellular AK activity)) of 1 and a fold induction at 50 µM ([6]; cutoff for positive-scoring molecules 3-fold increase, read-out: AK-based Prestwick Library Screening Results, K. pneumoniae (fold increase in extracellular AK activity)) of 1. For the same compound, the fold induction at 50 µM ([7]; cutoff for positive-scoring molecules 3-fold increase, read-out: AK-based Prestwick Library Screening Results, S. aureus (fold increase in extracellular AK activity)) was 6.5.
